Source: PubChem BioAssay (NCI)
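Assay format: 96-well plates, 48-hour exposure. TGI is the concentration that stops growth completely.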

Key:
Assay in all cases: NCI tumour cell line growth inhibition, 48 h
HT29 colon = system: HT29 colon
SK-MEL-5 melanoma = system: SK-MEL-5 melanoma
SNB-75 CNS = system: SNB-75 CNS
OVCAR-8 ovarian = system: OVCAR-8 ovarian
EKVX NSCLC = system: EKVX NSCLC
OVCAR-3 ovarian = system: OVCAR-3 ovarian
LOX IMVI melanoma = system: LOX IMVI melanoma
KM12 colon = system: KM12 colon
MOLT-4 leukemia = system: MOLT-4 leukemia
LXFL 529 NSCLC = system: LXFL 529 NSCLC
SNB-19 CNS = system: SNB-19 CNS
HOP-92 NSCLC = system: HOP-92 NSCLC
M19-MEL melanoma = system: M19-MEL melanoma
SF-268 CNS = system: SF-268 CNS
ACHN renal = system: ACHN renal
SR leukemia = system: SR leukemia
MALME-3M melanoma = system: MALME-3M melanoma
A549 NSCLC = system: A549 NSCLC
OVCAR-4 ovarian = system: OVCAR-4 ovarian
UO-31 renal = system: UO-31 renal
CCRF-CEM leukemia = system: CCRF-CEM leukemia
HCT-15 colon = system: HCT-15 colon
M14 melanoma = system: M14 melanoma
SF-539 CNS = system: SF-539 CNS
SW-620 colon = system: SW-620 colon
HCC-2998 colon = system: HCC-2998 colon
NCI-H460 lung = system: NCI-H460 lung
CAKI-1 renal = system: CAKI-1 renal
HCT-116 colon = system: HCT-116 colon
SK-OV-3 ovarian = system: SK-OV-3 ovarian
SNB-78 CNS = system: SNB-78 CNS
HL-60(TB) leukemia = system: HL-60(TB) leukemia
RXF 393 renal = system: RXF 393 renal
SF-295 CNS = system: SF-295 CNS
IGROV1 ovarian = system: IGROV1 ovarian
SK-MEL-2 melanoma = system: SK-MEL-2 melanoma
U251 CNS = system: U251 CNS
UACC-257 melanoma = system: UACC-257 melanoma
SK-MEL-28 melanoma = system: SK-MEL-28 melanoma
DLD-1 colon = system: DLD-1 colon
HOP-62 NSCLC = system: HOP-62 NSCLC
NCI-H522 lung = system: NCI-H522 lung
DMS 273 small cell lung = system: DMS 273 small cell lung
NCI-H226 lung = system: NCI-H226 lung
KM20L2 colon = system: KM20L2 colon
K-562 leukemia = system: K-562 leukemia
COLO 205 colon = system: COLO 205 colon
SN12C renal = system: SN12C renal
UACC-62 melanoma = system: UACC-62 melanoma
786-0 renal = system: 786-0 renal
NCI-H23 lung = system: NCI-H23 lung
HOP-18 NSCLC = system: HOP-18 NSCLC
A498 renal = system: A498 renal
TK-10 renal = system: TK-10 renal
DMS 114 small cell lung = system: DMS 114 small cell lung
OVCAR-5 ovarian = system: OVCAR-5 ovarian
RPMI-8226 leukemia = system: RPMI-8226 leukemia
PC-3 prostate = system: PC-3 prostate
T-47D breast = system: T-47D breast
NCI/ADR-RES ovarian = system: NCI/ADR-RES ovarian
DU-145 prostate = system: DU-145 prostate
BT-549 breast = system: BT-549 breast
MDA-MB-435 = system: MDA-MB-435
HS 578T breast = system: HS 578T breast
MDA-N = system: MDA-N
MDA-MB-231 breast = system: MDA-MB-231 breast
MCF7 breast = system: MCF7 breast
XF 498 CNS = system: XF 498 CNS

Measured: TGI

CC1(C)CC(=O)C(CC2C(=O)c3ccccc3C2=O)C(=O)C1
not listed: RPMI-8226 leukemia | PC-3 prostate | T-47D breast | NCI/ADR-RES ovarian | DU-145 prostate | BT-549 breast | MDA-MB-435 | HS 578T breast | MDA-N | MDA-MB-231 breast | MCF7 breast | XF 498 CNS
> 100 µM: all other assays above

Cc1c(C)c(CC(=O)N2CC2)c(C)c(C)c1CC(=O)N1CC1
4.79 µM: SR leukemia
50.3 µM: A549 NSCLC
37.9 µM: LXFL 529 NSCLC
75.3 µM: HOP-18 NSCLC
2.91 µM: MOLT-4 leukemia
65.8 µM: EKVX NSCLC
44.9 µM: HOP-92 NSCLC
81.9 µM: HS 578T breast
38.7 µM: UO-31 renal
43.6 µM: NCI-H226 lung
> 48.8 µM: CCRF-CEM leukemia
56.5 µM: DLD-1 colon
40.3 µM: KM12 colon
> 100 µM: SNB-19 CNS
13.2 µM: DMS 273 small cell lung
12.8 µM: RXF 393 renal
16.5 µM: SF-539 CNS
24.5 µM: DMS 114 small cell lung
50.2 µM: NCI-H460 lung
> 56.7 µM: SN12C renal
44.2 µM: HOP-62 NSCLC
50.8 µM: SNB-75 CNS
> 58.2 µM: HCT-15 colon
48.1 µM: MDA-MB-231 breast
60.5 µM: SF-295 CNS
25.2 µM: HCC-2998 colon
37.6 µM: SK-MEL-28 melanoma
44.8 µM: OVCAR-4 ovarian
63.4 µM: MCF7 breast
51.4 µM: OVCAR-3 ovarian | BT-549 breast
47.3 µM: KM20L2 colon
> 83 µM: TK-10 renal
55.5 µM: RPMI-8226 leukemia
27.4 µM: M19-MEL melanoma
> 57.2 µM: SW-620 colon
15.8 µM: DU-145 prostate
17.2 µM: UACC-62 melanoma
32.6 µM: SK-MEL-2 melanoma
50 µM: UACC-257 melanoma
43.2 µM: IGROV1 ovarian
29.5 µM: COLO 205 colon
99.5 µM: SK-OV-3 ovarian
32.4 µM: CAKI-1 renal
74.4 µM: NCI/ADR-RES ovarian
32.1 µM: A498 renal
> 49.6 µM: OVCAR-8 ovarian
57.3 µM: SNB-78 CNS
> 75.1 µM: HT29 colon
34.2 µM: MDA-N
10.3 µM: HL-60(TB) leukemia
> 49 µM: LOX IMVI melanoma
33.6 µM: MDA-MB-435
> 67.3 µM: U251 CNS
> 92.7 µM: K-562 leukemia
27.1 µM: MALME-3M melanoma | NCI-H522 lung
39.4 µM: NCI-H23 lung
> 65.9 µM: 786-0 renal
> 83.8 µM: OVCAR-5 ovarian
23.1 µM: SF-268 CNS
25.7 µM: ACHN renal
28.5 µM: HCT-116 colon
18.9 µM: M14 melanoma
58.2 µM: PC-3 prostate
80.5 µM: T-47D breast

O=C1CNS(=O)(=O)N1
not listed: SK-MEL-5 melanoma | LOX IMVI melanoma | ACHN renal | HCT-15 colon | NCI-H460 lung | RXF 393 renal | U251 CNS | KM20L2 colon | HOP-18 NSCLC | OVCAR-5 ovarian | PC-3 prostate | T-47D breast | NCI/ADR-RES ovarian | DU-145 prostate | BT-549 breast | MDA-MB-435 | HS 578T breast | MDA-N | MDA-MB-231 breast | MCF7 breast
> 100 µM: all other assays above

O=C(O)/C=C\C(=O)Nc1ccc(S(=O)(=O)c2ccc(NC(=O)/C=C\C(=O)O)cc2)cc1
not listed: HCC-2998 colon | NCI-H460 lung | RXF 393 renal | DMS 273 small cell lung | HOP-18 NSCLC | A498 renal | PC-3 prostate | T-47D breast | NCI/ADR-RES ovarian | DU-145 prostate | BT-549 breast | MDA-MB-435 | HS 578T breast | MDA-N | MDA-MB-231 breast | MCF7 breast
> 100 µM: all other assays above

CCOC(=O)c1sc2ncnc(N)c2c1C
71.3 µM: RXF 393 renal
92.2 µM: HOP-92 NSCLC
not listed: LXFL 529 NSCLC | M19-MEL melanoma | SNB-78 CNS | DLD-1 colon | DMS 273 small cell lung | KM20L2 colon | HOP-18 NSCLC | DMS 114 small cell lung | XF 498 CNS
> 100 µM: all other assays above

CCCCCCCCCCCC1CC(=O)NCCCN(C)CCCCN(C)CCCN1C (stereo not drawn)
3.06 µM: UACC-257 melanoma
7.73 µM: MOLT-4 leukemia
2.96 µM: KM12 colon
3.1 µM: SNB-19 CNS
2.61 µM: DMS 273 small cell lung
3.14 µM: SN12C renal | A498 renal
3.03 µM: COLO 205 colon
2.66 µM: NCI-H460 lung
0.605 µM: SR leukemia
3.21 µM: HCC-2998 colon
3.01 µM: KM20L2 colon
3.3 µM: SF-268 CNS | OVCAR-5 ovarian
3.24 µM: M19-MEL melanoma | M14 melanoma
2.84 µM: LOX IMVI melanoma
3.22 µM: IGROV1 ovarian
2.85 µM: CCRF-CEM leukemia
3.02 µM: RXF 393 renal
3.12 µM: OVCAR-4 ovarian | NCI-H23 lung | TK-10 renal
3.2 µM: EKVX NSCLC | SK-OV-3 ovarian
5.32 µM: HL-60(TB) leukemia
2.89 µM: HCT-116 colon | 786-0 renal
3.07 µM: OVCAR-3 ovarian | SF-295 CNS
3.27 µM: SNB-78 CNS | NCI-H522 lung
3.09 µM: SK-MEL-28 melanoma | UACC-62 melanoma
3.08 µM: XF 498 CNS | ACHN renal
2.99 µM: SNB-75 CNS
3.04 µM: U251 CNS | HOP-62 NSCLC
3 µM: HCT-15 colon | DLD-1 colon
2.97 µM: HT29 colon
3.43 µM: SK-MEL-5 melanoma | NCI-H226 lung
4.09 µM: RPMI-8226 leukemia
3.33 µM: OVCAR-8 ovarian | MALME-3M melanoma
2.68 µM: HOP-92 NSCLC
3.54 µM: CAKI-1 renal
3.16 µM: LXFL 529 NSCLC | A549 NSCLC | SK-MEL-2 melanoma
0.699 µM: K-562 leukemia
3.17 µM: SF-539 CNS | HOP-18 NSCLC
3.11 µM: UO-31 renal
2.35 µM: SW-620 colon
3.19 µM: DMS 114 small cell lung

Cc1cccc(C)c1N1C(=O)C(=O)C(c2nc3ccccc3s2)/C(=N/NC(=O)NN)C1=O (stereo not drawn)
not listed: LOX IMVI melanoma | K-562 leukemia | OVCAR-5 ovarian | RPMI-8226 leukemia | PC-3 prostate | T-47D breast | NCI/ADR-RES ovarian | DU-145 prostate | BT-549 breast | MDA-MB-435 | HS 578T breast | MDA-N | MDA-MB-231 breast | MCF7 breast
> 100 µM: all other assays above
